Consider five compounds from US4737510A, “Bioactive metabolites from the caribbean sponge agelas coniferin” (priority 1986, dated 1988).

The subject of one series is serotonergic receptor. As to conditions: cited from earlier work.
The next series deals with KB carcinoma. The settings on record: cited from earlier work.
For series [1], the system named is Herpes simplex virus, type I (HSV-1). The series is described as follows: microbe, parasite or virus in culture. Format: cell-based. As to conditions: for zone of inhibition at 20 µg/disc / zone of inhibition at 50 µg/disc / zone of inhibition at 100 µg/disc / zone of inhibition at 200 µg/disc: Human alphaherpesvirus 1, in Primates.
Series [2] concerns Balanus amphitrite amphitrite. The series is described as follows: Barnacle settlement assay, facilitation. The class given is in vivo, Balanus amphitrite amphitrite (barnacle). The settings on record: Amphibalanus amphitrite.
The subject of series [3] is Balanus amphitrite amphitrite. The series is described as follows: Barnacle settlement assay, inhibition. The class given is in vivo, Balanus amphitrite amphitrite (barnacle). The settings on record: Amphibalanus amphitrite.
The test system of series [4] is Monkey Kidney Cells (CV-1). Kind of series: Cytotoxicity to monkey kidney cells (CV-1) determined by Dr. R. G. Hughes, Jr. The settings on record: 8 or less essentially indicates noncytotoxicity.
The next series deals with Bacillus subtilis. The series is described as follows: Disc diffusion antimicrobial assay, Bacillus subtilis. The class given is cell-based. As to conditions: for zone of inhibition at 10 µg/disc / zone of inhibition at 50 µg/disc / zone of inhibition at 100 µg/disc: Bacillus subtilis, 6.5 mm disc, read-out: diameter of the clear zone of inhibition; for zone of inhibition at 50 µg/disc: 50 μg/disk; for zone of inhibition at 100 µg/disc: 100 μg/disk. A general note: Agar diffusion results depend on both activity and mobility in agar.

The subject of the next series is E. coli strain BR339. The class given is cell-based.
Series [5] relates to vesicular stomatitis virus (VSV). Kind of series: microbe, parasite or virus in culture. Format: cell-based. As to conditions: for zone of inhibition at 20 µg/disc / zone of inhibition at 50 µg/disc / zone of inhibition at 100 µg/disc / zone of inhibition at 200 µg/disc: Vesicular stomatitis virus, in Primates.
A further series has as its system Escherichia coli. Kind of series: Disc diffusion antimicrobial assay, Escherichia coli. Format: cell-based. As to conditions: for zone of inhibition at 10 µg/disc / zone of inhibition at 50 µg/disc / zone of inhibition at 100 µg/disc: Escherichia coli, 6.5 mm disc, read-out: diameter of the clear zone of inhibition; for zone of inhibition at 50 µg/disc: 50 μg/disk.

For series [6], the system named is Herpes Simplex Virus type 1 (HSV-1). Kind of series: Antiviral activity against HSV-1 determined by Dr. R. G. Hughes, Jr.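 Further: grades: +++ strong ++ moderate + light ± questionable - negative.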 The class given is cell-based.
The subject of series [7] is monkey kidney (CV-1) cells. Kind of series: Cytotoxicity to monkey kidney (CV-1) cells.
A short description of series [8]: Stability of isolated solids. As to conditions: diacetate salts, amorphous solids. The class given is physicochemical.
In series [9] the test system is vesicular stomatitus virus (VSV). The class given is cell-based. The settings on record: 100 μg/disk.
Series [10] is described as follows: Water solubility (in words). The class given is physicochemical. The settings on record: relative to 1a-6a.
[11] abbreviates: read-out: antiviral activity, HSV-1, ++ scale.
Setting [12] is: read-out: antiviral activity, HSV-1, zone diameter.
Setting [13] is: read-out: antiviral activity, VSV, ++ scale.
[14] abbreviates: read-out: antiviral activity, VSV, zone diameter.

Molecules are shown by their SMILES. Several values for one entry are separate records, joined by “and”; a condition that tells them apart may be missing. Equal values may be shown once. Read-outs that look alike come from different tables or passages of the source.

A word on the EC50: it is the concentration that produces a half-maximal response.

For the compound `Cn1c(/C=C\CNC(=O)c2cc(Br)c[nH]2)cnc1N` [Keramidine], the “serotonergic receptor activity” value in the series with serotonergic receptor is recorded as “serotonergic receptor antagonist”.

On to `N=C(N)NC(=O)c1cc(Br)c[nH]1` [N-amidino-4-bromopyrrole-2-carboxamide], for which the “effect on KB carcinoma” value with KB carcinoma was “KB carcinoma-altering”.

As to `Nc1ncc([C@@H]2[C@@H](CNC(=O)c3cc(Br)c[nH]3)[C@H](CNC(=O)c3cc(Br)c[nH]3)[C@H]2c2cnc(N)[nH]2)[nH]1` (relative stereo) [Compound 2a, Sceptrin Acetate], the zone of inhibition at 20 µg/disc in [1] (setting [11]) is 11 to 15 mm; in series [1] (setting [12]), 11 mm; in [5] (setting [13]), 7 mm; in series [5] (setting [14]) it was 7 mm. In addition, the zone of inhibition at 50 µg/disc in series [1] (setting [11]) is 11 to 15 mm; in [1] (setting [12]), 13 mm; with Bacillus subtilis it was 16 mm; in [5] (setting [13]) it was 8 to 10 mm; in series [5] (setting [14]) it was 8 mm; with Escherichia coli, 10 mm. Moreover, the zone of inhibition at 100 µg/disc is 11 to 15 mm in [1] (setting [11]); 13 mm in series [1] (setting [12]); 17 mm in the series with Bacillus subtilis; 11 to 15 mm in [5] (setting [13]); 11 mm in series [5] (setting [14]); 11 mm in the series with Escherichia coli (100 μg/disk). Besides, the zone of inhibition at 200 µg/disc in series [1] (setting [11]) is more than 16 mm; in [1] (setting [12]) it was 21 mm; in [5] (setting [13]), 11 to 15 mm; in series [5] (setting [14]), 13 mm. Besides, the EC50 in series [2] is 0.029 µg/mL; in series [3], 44 µg/mL. Further, the “cytotoxicity, zone diameter” value in series [4] (25 μg/disk) was determined as 5 mm; in series [4] (50 μg/disk) it was 5 mm; in [4] (100 μg/disk), 7 mm. The “growth inhibition of Bacillus subtilis” value in the series on Bacillus subtilis (10 μg/disk) is recorded as “most active”. For the same compound, the values for the zone of inhibition at 10 µg/disc in the series on Bacillus subtilis (10 μg/disk) and in the series with Escherichia coli (10 μg/disk) were 9 mm and 7 mm, respectively. For the same compound, the “BIA activity” value in the series with E. coli strain BR339 is listed as “inducers”. For the same compound, the “BIA activity, numerical color intensity scale 0-10” value with E. coli strain BR339 is 9 and 6. The “activity against Escherichia coli” value in the series on Escherichia coli (10 μg/disk) was “active”. Moreover, the HSV-1 activity result is given as “-” in series [6] (25 μg/disk), “+++” in [6] (50 μg/disk) and “++” in [6] (100 μg/disk).

Consider `Nc1ncc(C2c3nc(N)[nH]c3CC(CNC(=O)c3cc(Br)c(Br)[nH]3)C2CNC(=O)c2cc(Br)c(Br)[nH]2)[nH]1` (centres unmarked) [Compound 6a, Dibromoageliferin Acetate], for which the zone of inhibition at 20 µg/disc was 8 to 10 mm in series [1] (setting [11]), 9 mm in series [1] (setting [12]), less than 7 mm in series [5] (setting [13]) and 0 mm in series [5] (setting [14]). In addition, the zone of inhibition at 50 µg/disc in [1] (setting [11]) is 11 to 15 mm; in series [1] (setting [12]), 11 mm; with Bacillus subtilis, 9 mm; in [5] (setting [13]), 8 to 10 mm; in [5] (setting [14]), 8 mm; in the series on Escherichia coli it was 7 mm. Moreover, the zone of inhibition at 100 µg/disc in [1] (setting [11]) was 11 to 15 mm; in series [1] (setting [12]), 11 mm; in the series on Bacillus subtilis, 9 mm; in [5] (setting [13]), 8 to 10 mm; in [5] (setting [14]), 9 mm; in the series with Escherichia coli (100 μg/disk) it was 7 mm. Besides, the zone of inhibition at 200 µg/disc in series [1] (setting [11]) was 11 to 15 mm; in series [1] (setting [12]), 12 mm; in series [5] (setting [13]), 8 to 10 mm; in series [5] (setting [14]), 10 mm. Further, the “traces of cytotoxicity, zone” value in series [7] (all concentrations (200, 100, 50, 20 μg/disk)) is given as not above 8 mm. The “cytotoxicity, zone diameter” value in series [4] (25 μg/disk) is 6 mm; in series [4] (50 μg/disk), 8 mm; in [4] (100 μg/disk), 10 mm. Besides, the zone of inhibition at 10 µg/disc came to 8 mm in the series on Bacillus subtilis (10 μg/disk) and 0 mm in the series with Escherichia coli (10 μg/disk). For the same compound, in the series with E. coli strain BR339, the “BIA activity, numerical color intensity scale 0-10” value turned out to be 2. Moreover, the HSV-1 activity entry is listed as “-” in series [6] (25 μg/disk), “±” in [6] (50 μg/disk) and “±” in [6] (100 μg/disk).

`NC1=NC(=O)C(C2C(CNC(=O)c3ccc[nH]3)C(CNC(=O)c3cc(Br)c[nH]3)C2c2cnc(N)[nH]2)N1` (centres unmarked) [Compound 7a, Debromooxysceptrin Acetate]: in series [8], the “stability” value is listed as “stable”. The “activity against HSV-1” value in series [1] is “essentially inactive”. In addition, the “antiviral zone appearance” value in series [1] was “diffuse zones”. Besides, the zone of inhibition at 20 µg/disc in series [1] (setting [11]) is less than 7 mm; in series [1] (setting [12]) it was 0 mm. For the same compound, the zone of inhibition at 50 µg/disc in series [1] (setting [11]) is less than 7 mm; in [1] (setting [12]) it was 0 mm; in the series on Bacillus subtilis, 7 mm; in the series on Escherichia coli, 0 mm. Besides, the zone of inhibition at 100 µg/disc was less than 7 mm in [1] (setting [11]), 0 mm in [1] (setting [12]), 8 mm with Bacillus subtilis and 0 mm in the series on Escherichia coli (100 μg/disk). In addition, the zone of inhibition at 200 µg/disc was 8 to 10 mm in series [1] (setting [11]), less than 7 mm in [5] (setting [13]) and 0 mm in series [5] (setting [14]). In series [7] (200 μg/disk), the “traces of cytotoxicity, zone” value was not above 8 mm. Besides, the “cytotoxicity, zone diameter” value in [4] (25 μg/disk) amounted to 5 mm; in [4] (50 μg/disk), 5 mm; in series [4] (100 μg/disk), 6 mm. In addition, the zone of inhibition at 10 µg/disc in the series with Bacillus subtilis (10 μg/disk) and with Escherichia coli (10 μg/disk) was 0 mm throughout. Also, in series [9], the VSV activity result is listed as “±”. In addition, the “BIA activity” value with E. coli strain BR339 is “somewhat less active”. Besides, in the series on E. coli strain BR339, the “BIA activity, numerical color intensity scale 0-10” value is given as 4. For the same compound, the “BIA zone appearance” value in the series with E. coli strain BR339 is recorded as “more diffuse zone”. Moreover, in series [5] (200 μg/disk), the “activity against VSV” value was “essentially inactive”. Further, the “activity against Escherichia coli” value with Escherichia coli (100 μg/disk) is “inactive”. Moreover, the HSV-1 activity result in [6] (25 μg/disk), in [6] (50 μg/disk) and in [6] (100 μg/disk) was “-” each time. Further, the “water solubility” value in series [10] was “more water soluble”.
